In patent US11491245B2, “Gadolinium chelate compounds for use in magnetic resonance imaging” (BAYER PHARMA AKTIENGESELLSCHAFT, priority 2015, dated 2022):
Where two headings read alike, the source gives them in different places.

How the values were obtained:
[1] = Relaxivity measurements at 3.0 T; assay type: physicochemical; conditions: 37° C., normalized to Gd, average ± standard deviation
Experimental: Relaxivity measurements at 3.0 T were performed with a whole body 3.0 T MRI Scanner (Philips Intera, Philips Healthcare, Hamburg, Germany) using a knee-coil (SENSE-Knee-8, Philips Healthcare, Hamburg, Germany). The sample tubes (CryoTubetm Vials, Thermo Scientific 1.8 mL, Roskilde, Denmark) were positioned in 3 rows of 4 and 5 tubes in a plastic holder in a box filled with water. The temperature was adjusted to 37° C. For the MRI sequence, the shortest possible echo-time (TE) with 7.46 milliseconds was used. The inversion times were chosen to optimize the sequence to measure T1 values corresponding to the estimated T1 range of all relaxation times of contrast media containing solutions. The following inversion times (TIs) were applied: 50, 100, 150, 200, 300, 500, 700, 1000, 1400, 2100, 3200, and 4500 milliseconds. The sequence was run with a constant relaxation delay of 3.4 seconds after the registration of the last echo (variable TR in the range from 3450 to 7900 milliseconds). For details of the fit procedure, see Rohrer et. al. (Invest. Radiol. 2005; 40, 11: 715-724). The experimental matrix of the phantom measurement was 320×320.
The relaxivities were evaluated using three different concentrations of each compound (3 concentrations between 0.05 and 2 mM).
(§1) The T1 relaxation times of the Example compounds 1-6 were measured in water and human plasma. Human plasma preparation: For each experiment fresh blood was taken from a volunteer using 10 mL citrate-tubes (Sarstedt S-Monovette 02.1067.001, 10 mL, Citrate). The 10 mL citrate-tubes were carefully inverted 10 times to mix blood and anticoagulant and centrifuged for 15 minutes at 1811 g at room temperature (Eppendorf, Centrifuge 5810R).
The relaxivities ri (where i=1, 2) were calculated on the basis of the measured relaxation rates Ri in water and plasma: Ri=Ri(0)+ri[CGd], where Ri(0) represent the relaxation rate of the respective solvent and CGd the concentration of the compound normalized to the Gadolinium (Table 2).

[2] = Relaxivity measurements at 1.41 T; assay type: physicochemical; conditions: 1.41 T, 37° C., normalized to Gd; for r1 FBS: fetal bovine serum
Experimental: Relaxivity measurements at 1.41 T were performed using a MiniSpec mq60 spectrometer (Bruker Analytik, Karlsruhe, Germany) operating at a resonance frequency of 60 MHz and a temperature of 37° C. The T1 relaxation times were determined using the standard inversion recovery (IR) method with a fixed relaxation delay of at least 5×T1. The variable inversion time (TI) was calculated automatically by the standard software of the MiniSpec mq60 (8 steps). The T2 measurements were done by using a Carr-Purcell-Meiboom-Gill (CPMG) pulse sequence, applying a relaxation delay of at least 5×T1.
Each relaxivity measurement was performed using three different Gd concentrations (3 concentrations between 0.05 and 2 mM). The T1 and T2 relaxation times of the example compounds 1-10 were measured in different media for example in water, fetal bovine serum (FBS, Sigma, F7524) and human plasma.
as §1, with “Human” for “The T1 relaxation times of the Example compounds 1-6 were measured in water and human plasma. Human”
The relaxivities ri (where i=1, 2) were calculated on the basis of the measured relaxation rates Ri in water and plasma: Ri=Ri(0)+ri[CGd], where Ri(0) represent the relaxation rate of the respective solvent and CGd the concentration of the compound normalized to the Gadolinium. The Gadolinium concentrations of the investigated solutions were verified by Inductively Coupled Plasma Mass Spectroscopy (ICP-MS Agilent 7500a, Waldbronn, Germany).

Water solubility = assay type: physicochemical; conditions: 10 mM Tris-HCl buffer, 20° C.
Experimental: The water solubility of the compounds was determined at room temperature (20° C.) in 0.5 mL buffer solution (10 mM Tris-HCl) in the microcentrifuge tubes (Eppendorf, 2.0 mL safe-lock caps). The solid compound was added stepwise to the buffer solution. The suspension was mixed using a shaker (Heidolph Reax 2000) and treated 5 min in an ultrasound bath (Bandelin, Sonorex Super RK255H) The suspension was stored at room temperature (20° C.) over night and final Gadolinium concentration was determined by inductively coupled plasma mass spectrometry (ICP-MS).

[3] = 37° C., cited from earlier work; for r1 FBS: bovine plasma
[4] = reference compounds (marked ^), 3.0 T, average ± standard deviation
[5] = reference compounds, 1.5 T, from Rohrer et al.

Molecule	r1 human plasma [1]	r1 water [1]	r1 human plasma [2]	r1 water [2]	r1 FBS [2]	Solubility (Water solubility)	r1 human plasma [3, 4]	r1 water [3, 4]	r1 FBS [3, 5]	r1 water [3, 5]
C[C@H](C(=O)NCC(=O)NCC(CNC(=O)CNC(=O)[C@@H](C)N1CCN(CC(=O)[O-])CCN(CC(=O)[O-])CCN(CC(=O)[O-])CC1)(CNC(=O)CNC(=O)[C@@H](C)N1CCN(CC(=O)[O-])CCN(CC(=O)[O-])CCN(CC(=O)[O-])CC1)CNC(=O)CNC(=O)[C@@H](C)N1CCN(CC(=O)[O-])CCN(CC(=O)[O-])CCN(CC(=O)[O-])CC1)N1CCN(CC(=O)[O-])CCN(CC(=O)[O-])CCN(CC(=O)[O-])CC1.[Gd+3].[Gd+3].[Gd+3].[Gd+3] [Example 3-1, Tetragadolinium {4,10-bis(carboxylatomethyl)-7-[(2R,16R)-3,6,12,15-tetraoxo-16-[4,7,10-tris(carboxylatomethyl)-1,4,7,10-tetraazacyclododecan-1-yl]-9,9-bis({[({(2R)-2-[4,7,10-tris(carboxylatomethyl)-1,4,7,10-tetraazacyclododecan-1-yl]propanoyl}amino)-acetyl]amino}methyl)-4,7,11,14-tetraazaheptadecan-2-yl]-1,4,7,10-tetraazacyclo-dodecan-1-yl}acetate]	10.1 ± 0.1 L/mmol/s	8.9 ± 0.2 L/mmol/s	10.4 L/mmol/s	9.5 L/mmol/s	–	–	–	–	–	–
C[C@@H](C(=O)NCC(=O)NCC(CNC(=O)CNC(=O)[C@H](C)N1CCN(CC(=O)[O-])CCN(CC(=O)[O-])CCN(CC(=O)[O-])CC1)(CNC(=O)CNC(=O)[C@H](C)N1CCN(CC(=O)[O-])CCN(CC(=O)[O-])CCN(CC(=O)[O-])CC1)CNC(=O)CNC(=O)[C@H](C)N1CCN(CC(=O)[O-])CCN(CC(=O)[O-])CCN(CC(=O)[O-])CC1)N1CCN(CC(=O)[O-])CCN(CC(=O)[O-])CCN(CC(=O)[O-])CC1.[Gd+3].[Gd+3].[Gd+3].[Gd+3] [Example 3-2, Tetragadolinium {4,10-bis(carboxylatomethyl)-7-[(2S,16S)-3,6,12,15-tetraoxo-16-[4,7,10-tris(carboxylatomethyl)-1,4,7,10-tetraazacyclododecan-1-yl]-9,9-bis({[({(2S)-2-[4,7,10-tris(carboxylatomethyl)-1,4,7,10-tetraazacyclododecan-1-yl]propanoyl}amino)acetyl]-amino}methyl)-4,7,11,14-tetraazaheptadecan-2-yl]-1,4,7,10-tetraazacyclododecan-1-yl}-acetate]	11.4 ± 0.2 L/mmol/s	9.0 ± 0.4 L/mmol/s	11.4 L/mmol/s	9.4 L/mmol/s	–	–	–	–	–	–
CC(C(=O)NCC(=O)N1CCN(C(=O)CNC(=O)C(C)N2CCN(CC(=O)[O-])CCN(CC(=O)[O-])CCN(CC(=O)[O-])CC2)CCN(C(=O)CNC(=O)C(C)N2CCN(CC(=O)[O-])CCN(CC(=O)[O-])CCN(CC(=O)[O-])CC2)CCN(C(=O)CNC(=O)C(C)N2CCN(CC(=O)[O-])CCN(CC(=O)[O-])CCN(CC(=O)[O-])CC2)CC1)N1CCN(CC(=O)[O-])CCN(CC(=O)[O-])CCN(CC(=O)[O-])CC1.[Gd+3].[Gd+3].[Gd+3].[Gd+3] (centres unmarked) [Example 7, Tetragadolinium 2,2′,2″,2′″,2″″,2′″″,2″″″,2′″″″,2″″″″,2′″″″″,2″″″″″,2′″″″″″-{1,4,7,10-tetra-azacyclododecane-1,4,7,10-tetrayltetrakis[(2-oxoethane-2,1-diyl)imino(1-oxopropane-1,2-diyl)-1,4,7,10-tetraazacyclododecane-10,1,4,7-tetrayl]}dodecaacetate]	–	–	12.1 L/mmol/s	10.8 L/mmol/s	11.7 L/mmol/s	>1400 mmol Gd/L	–	–	–	–
O=C([O-])CN1CCN(CC(=O)[O-])CCN(CC(=O)NCC(CNC(=O)CN2CCN(CC(=O)[O-])CCN(CC(=O)[O-])CCN(CC(=O)[O-])CC2)(CNC(=O)CN2CCN(CC(=O)[O-])CCN(CC(=O)[O-])CCN(CC(=O)[O-])CC2)CNC(=O)CN2CCN(CC(=O)[O-])CCN(CC(=O)[O-])CCN(CC(=O)[O-])CC2)CCN(CC(=O)[O-])CC1.[Gd+3].[Gd+3].[Gd+3].[Gd+3] [Example 10, Tetragadolinium {4,10-bis(carboxylatomethyl)-7-[2-oxo-2-({3-({[4,7,10-tris(carboxylato-methyl)-1,4,7,10-tetraazacyclododecan-1-yl]acetyl}amino)-2,2-bis[({[4,7,10-tris-(carboxylatomethyl)-1,4,7,10-tetraazacyclododecan-1-yl]acetyl}amino)methyl]propyl}-amino)ethyl]-1,4,7,10-tetraazacyclododecan-1-yl}acetate]	–	–	9.7 L/mmol/s	7.3 L/mmol/s	9.2 L/mmol/s	>800 mmol Gd/L	–	–	–	–
CNC[C@H](O)[C@@H](O)[C@H](O)[C@H](O)CO.CNC[C@H](O)[C@@H](O)[C@H](O)[C@H](O)CO.O=C([O-])CN(CCN(CC(=O)[O-])CC(=O)O)CCN(CC(=O)[O-])CC(=O)O.[Gd+3] [Reference compound 2, gadopentetate dimeglumine]	–	–	–	–	–	–	3.7 ± 0.2 L/mmol/s	3.1 ± 0.3 L/mmol/s	4.1 L/mmol/s	3.3 L/mmol/s
CCOc1ccc(CC(CN(CCN(CC(=O)[O-])CC(=O)[O-])CC(=O)[O-])N(CC(=O)[O-])CC(=O)[O-])cc1.[Gd+3].[Na+].[Na+] (centres unmarked) [Reference compound 3, gadoxetate disodium]	–	–	–	–	–	–	6.2 ± 0.3 L/mmol/s	4.3 ± 0.3 L/mmol/s	6.9 L/mmol/s	4.7 L/mmol/s
Gadomer-17 [Reference compound 4]	–	–	–	–	–	–	13 ± 1 L/mmol/s	13.0 ± 0.7 L/mmol/s	16 L/mmol/s	17.3 L/mmol/s
Hexagadolinium 2,2′,2″,2′″,2″″,2′″″,2″″″,2′″″″,2″″″″,2′″″″″,2″″″″″,2′″″″″″,2″″″″″″, 2′″″″″″″,2″″″″″″″, 2′″″″″″″″,2″″″″″″″″,2′″″″″″″″″-{3,7,10-triazatricyclo[3.3.3.0^1,5]undecane-3,7,10-triyltris[carbonyl(3,6,11,14-tetraoxo-4,7,10,13-tetraazahexadecane-8,2,15-triyl)di-1,4,7,10-tetraazacyclododecane-10,1,4,7-tetrayl]}octadecaacetate [Example 8]	–	–	14.6 L/mmol/s	12.5 L/mmol/s	14.5 L/mmol/s	>1000 mmol Gd/L	–	–	–	–
Tetragadolinium 2,2′,2″,2′″,2″″,2′″″,2″″″,2′″″″,2″″″″,2′″″″″,2″″″″″,2′″″″″″-(3,7,9-triazabicyclo[3.3.1]nonane-3,7-diylbis{carbonyl-1,4-diazepane-6,1,4-triylbis[(2-oxoethane-2,1-diyl)-1,4,7,10-tetraazacyclododecane-10,1,4,7-tetrayl]})dodecaacetate [Example 9]	–	–	–	7.4 L/mmol/s	8.8 L/mmol/s	>800 mmol Gd/L	–	–	–	–
